From patent US8232269B2, “Amide compounds useful in therapy” (Pfizer Inc., priority 2008, dated 2012)

Biological target: T1, Progesterone Receptor (PR) (Homo sapiens, UniProt P06401)
T1 construct: endogenous in cells; host or cells: T47D human breast mammary carcinoma cells
T1 sequence (P06401 1-933): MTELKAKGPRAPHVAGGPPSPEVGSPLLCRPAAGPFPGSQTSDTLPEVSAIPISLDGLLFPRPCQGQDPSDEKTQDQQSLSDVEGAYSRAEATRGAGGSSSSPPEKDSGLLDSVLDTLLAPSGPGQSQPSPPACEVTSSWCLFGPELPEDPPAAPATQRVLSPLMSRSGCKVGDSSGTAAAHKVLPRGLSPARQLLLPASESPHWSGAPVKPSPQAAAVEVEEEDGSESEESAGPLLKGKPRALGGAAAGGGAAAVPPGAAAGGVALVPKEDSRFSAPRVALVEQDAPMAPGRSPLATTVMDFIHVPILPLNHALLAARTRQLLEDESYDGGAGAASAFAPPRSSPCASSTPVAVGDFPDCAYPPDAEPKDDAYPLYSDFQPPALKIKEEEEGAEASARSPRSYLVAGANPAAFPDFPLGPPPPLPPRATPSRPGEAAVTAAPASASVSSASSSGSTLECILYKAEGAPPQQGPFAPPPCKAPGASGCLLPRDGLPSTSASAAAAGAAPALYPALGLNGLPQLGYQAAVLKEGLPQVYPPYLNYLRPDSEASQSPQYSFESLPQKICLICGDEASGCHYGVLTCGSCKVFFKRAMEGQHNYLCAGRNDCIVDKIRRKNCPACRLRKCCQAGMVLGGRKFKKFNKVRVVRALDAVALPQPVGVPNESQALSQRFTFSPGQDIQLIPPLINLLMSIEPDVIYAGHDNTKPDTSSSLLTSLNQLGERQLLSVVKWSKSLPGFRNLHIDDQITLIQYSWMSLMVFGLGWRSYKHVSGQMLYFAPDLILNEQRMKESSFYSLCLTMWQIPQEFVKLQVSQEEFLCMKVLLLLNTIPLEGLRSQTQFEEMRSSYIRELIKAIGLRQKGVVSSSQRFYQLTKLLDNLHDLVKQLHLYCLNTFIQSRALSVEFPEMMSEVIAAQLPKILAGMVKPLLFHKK
Test: In vitro functional assay for progesterone receptor (PR) antagonists: inhibition of progesterone-induced alkaline phosphatase expression in T47D cells
Type: cell-based
Conditions: antagonist format, 5 nM progesterone, Ki calculated from IC50 with the Cheng-Prusoff equation
In short: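 Antagonist format: T47D cells (8750/well, phenol red-free DMEM + 5% CS-FCS) given half-log compound dilutions plus 5 nM progesterone (final), incubated overnight (≥16 h) at 37 °C. Alkaline phosphatase read by CSPD chemiluminescence after freeze-thaw lysis; 0.1 μM RU-486 final defines minimum.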

| Ki [nM] | SMILES |
| --- | --- |
| 13.3 | Cc1c(-c2ccc(C#N)cc2)nn(C2CCC2)c1C(=O)NC[C@H](C)O [Example 72, 3-(4-Cyanophenyl)-1-cyclobutyl-N-[(2S)-2-hydroxypropyl]-4-methyl-1H-pyrazole-5-carboxamide] |
| 29.1 | Cc1c(-c2ccc(C#N)cc2)nn(C2CCC2)c1C(=O)NC[C@@H](C)O [Example 73, 3-(4-Cyanophenyl)-1-cyclobutyl-N-[(2R)-2-hydroxypropyl]-4-methyl-1H-pyrazole-5-carboxamide] |
| 18.5 | Cc1c(-c2ccc(C#N)cc2)nn(C2CCC2)c1C(=O)NCC(C)(C)O [Example 74, 3-(4-Cyanophenyl)-1-cyclobutyl-N-(2-hydroxy-2-methylpropyl)-4-methyl-1H-pyrazole-5-carboxamide] |
| 61.2 | CNC(=O)c1c(C)c(-c2ccc(C#N)cc2)nn1C1CC1 [Example 81, 3-(4-Cyanophenyl)-1-cyclopropyl-N,4-dimethyl-1H-pyrazole-5-carboxamide] |
| 70.2 | Cc1c(-c2ccc(C#N)cc2)nn(C2CC2)c1C(=O)NCC1CC1 [Example 82, 3-(4-Cyanophenyl)-1-cyclopropyl-N-(cyclopropylmethyl)-4-methyl-1H-pyrazole-5-carboxamide] |
| 96.5 | CCNC(=O)c1c(C)c(-c2ccc(C#N)cc2)nn1C1CC1 [Example 83, 3-(4-Cyanophenyl)-1-cyclopropyl-N-ethyl-4-methyl-1H-pyrazole-5-carboxamide] |
| 125 | Cc1c(-c2ccc(C#N)cc2)nn(C2CC2)c1C(=O)NC1CC1 [Example 84, 3-(4-Cyanophenyl)-N,1-dicyclopropyl-4-methyl-1H-pyrazole-5-carboxamide] |
| 139 | Cc1c(-c2ccc(C#N)cc2)nn(C2CC2)c1C(=O)NC(C)C [Example 85, 3-(4-Cyanophenyl)-1-cyclopropyl-N-isopropyl-4-methyl-1H-pyrazole-5-carboxamide] |
| > 137 | Cc1c(-c2ccc(C#N)cc2)nn(C2CC2)c1C(=O)NC[C@H](C)O [Example 86, 3-(4-Cyanophenyl)-1-cyclopropyl-N-[(2S)-2-hydroxypropyl]-4-methyl-1H-pyrazole-5-carboxamide] |
| > 191 | Cc1c(-c2ccc(C#N)cc2)nn(C2CC2)c1C(=O)NC[C@@H](C)O [Example 87, 3-(4-Cyanophenyl)-1-cyclopropyl-N-[(2R)-2-hydroxypropyl]-4-methyl-1H-pyrazole-5-carboxamide] |
| 7.75 | CCNC(=O)c1c(C#N)c(-c2ccc(C#N)cc2)nn1C(C)C [Example 89, 4-Cyano-3-(4-cyanophenyl)-N-ethyl-1-isopropyl-1H-pyrazole-5-carboxamide] |
| 6.48 | CC(C)NC(=O)c1c(C#N)c(-c2ccc(C#N)cc2)nn1C(C)C [Example 91, 4-Cyano-3-(4-cyanophenyl)-N,1-diisopropyl-1H-pyrazole-5-carboxamide] |
| 8.84 | CNC(=O)c1c(C#N)c(-c2ccc(C#N)cc2)nn1C(C)C [Example 92, 4-Cyano-3-(4-cyanophenyl)-1-isopropyl-N-methyl-1H-pyrazole-5-carboxamide] |
| 10.6 | CC(C)n1nc(-c2ccc(C#N)cc2)c(C#N)c1C(=O)NC1CC1 [Example 94, 4-Cyano-3-(4-cyanophenyl)-N-cyclopropyl-1-isopropyl-1H-pyrazole-5-carboxamide] |
| 315 | CC(C)NC(=O)c1c(Cc2ccccc2)c(-c2ccc(C#N)cc2)nn1C(C)C [Example 95, 4-Benzyl-3-(4-cyanophenyl)-N,1-diisopropyl-1H-pyrazole-5-carboxamide] |
| 374 | CC(C)n1nc(-c2ccc(C#N)cc2)c(Cc2ccccc2)c1C(=O)NC1CC1 [Example 96, 4-Benzyl-3-(4-cyanophenyl)-N-cyclopropyl-1-isopropyl-1H-pyrazole-5-carboxamide] |
| 399 | CCNC(=O)c1c(Cc2ccccc2)c(-c2ccc(C#N)cc2)nn1C(C)C [Example 97, 4-Benzyl-3-(4-cyanophenyl)-N-ethyl-1-isopropyl-1H-pyrazole-5-carboxamide] |
| 208 | CC(C)n1nc(-c2ccc(C#N)cc2)c(C2CC(F)(F)C2)c1C(=O)NC1CC1 [Example 98, 3-(4-Cyanophenyl)-N-cyclopropyl-4-(3,3-difluorocyclobutyl)-1-isopropyl-1H-pyrazole-5-carboxamide] |
| 52.5 | CNC(=O)c1c(C2CC(F)(F)C2)c(-c2ccc(C#N)cc2)nn1C(C)C [Example 99, 3-(4-Cyanophenyl)-4-(3,3-difluorocyclobutyl)-1-isopropyl-N-methyl-1H-pyrazole-5-carboxamide] |

| Ki [nM] | SMILES |
| --- | --- |
| 151 | CCNC(=O)c1c(C2CC(F)(F)C2)c(-c2ccc(C#N)cc2)nn1C(C)C [Example 100, 3-(4-Cyanophenyl)-4-(3,3-difluorocyclobutyl)-N-ethyl-1-isopropyl-1H-pyrazole-5-carboxamide] |
| 91.4 | CCc1c(-c2ccc(C#N)cc2)nn(C(C)CC)c1C(=O)NC[C@H](C)O (stereo partly drawn) [Example 108, 1-sec-Butyl-3-(4-cyanophenyl)-4-ethyl-N-[(2S)-2-hydroxypropyl]-1H-pyrazole-5-carboxamide] |
| 8.24 | CCc1c(-c2ccc(C#N)cc2)nn(C(C)C)c1C(=O)NCC1CC1 [Example 110, 3-(4-Cyanophenyl)-N-(cyclopropylmethyl)-4-ethyl-1-isopropyl-1H-pyrazole-5-carboxamide] |
| 23.1 | CCc1c(-c2ccc(C#N)cc2)nn(C(C)C)c1C(=O)NC1CC1 [Example 111, 3-(4-Cyanophenyl)-N-cyclopropyl-4-ethyl-1-isopropyl-1H-pyrazole-5-carboxamide] |
| 26 | CCc1c(-c2ccc(C#N)cc2)nn(C(C)C)c1C(=O)NC [Example 112, 3-(4-Cyanophenyl)-4-ethyl-1-isopropyl-N-methyl-1H-pyrazole-5-carboxamide] |
| 27.1 | CNC(=O)CNC(=O)c1c(C)c(-c2ccc(C#N)c(C)c2)nn1C(C)C [Example 113, 3-(4-Cyano-3-methylphenyl)-1-isopropyl-4-methyl-N-[2-(methylamino)-2-oxoethyl]-1H-pyrazole-5-carboxamide] |
| 30.9 | CCc1c(-c2ccc(C#N)cc2)nn(C(C)C)c1C(=O)NC[C@H](C)O [Example 114, 3-(4-Cyanophenyl)-4-ethyl-N-[(2S)-2-hydroxypropyl]-1-isopropyl-1H-pyrazole-5-carboxamide] |
| 85 | CCc1c(-c2ccc(C#N)cc2)nn(C(C)C)c1C(=O)NC[C@@H](C)O [Example 115, 3-(4-Cyanophenyl)-4-ethyl-N-[(2R)-2-hydroxypropyl]-1-isopropyl-1H-pyrazole-5-carboxamide] |
| 32.1 | CCNC(=O)c1c(CC)c(-c2ccc(C#N)cc2)nn1C(C)C [Example 116, 3-(4-Cyanophenyl)-N,4-diethyl-1-isopropyl-1H-pyrazole-5-carboxamide] |
| 36.4 | CCc1c(-c2ccc(C#N)cc2)nn(C(C)C)c1C(=O)NC(C)C [Example 117, 3-(4-Cyanophenyl)-4-ethyl-N,1-diisopropyl-1H-pyrazole-5-carboxamide] |
| 54.8 | CCc1c(-c2ccc(C#N)cc2)nn(C(C)C)c1C(=O)NCC(C)(C)O [Example 118, 3-(4-Cyanophenyl)-4-ethyl-N-(2-hydroxy-2-methylpropyl)-1-isopropyl-1H-pyrazole-5-carboxamide] |
| > 145 | CCc1c(-c2ccc(C#N)cc2)nn(C(C)C)c1C(=O)NCC(=O)NC [Example 119, 3-(4-Cyanophenyl)-4-ethyl-1-isopropyl-N-[2-(methylamino)-2-oxoethyl]-1H-pyrazole-5-carboxamide] |
| 8.66 | CNC(=O)CNC(=O)c1c(C2CC2)c(-c2ccc(C#N)c(C)c2)nn1C(C)C [Example 120, 3-(4-Cyano-3-methylphenyl)-4-cyclopropyl-1-isopropyl-N-[2-(methylamino)-2-oxoethyl]-1H-pyrazole-5-carboxamide] |
| 5.06 | Cc1cc(-c2nn(C(C)C)c(C(=O)NC3CC3)c2C#N)ccc1C#N [Example 121] |
| 5.18 | CNC(=O)c1c(C#N)c(-c2ccc(C#N)c(C)c2)nn1C(C)C [Example 122] |
| 5.49 | Cc1cc(-c2nn(C(C)C)c(C(=O)NC(C)C)c2C#N)ccc1C#N [Example 123] |
| 5.93 | Cc1cc(-c2nn(C(C)C)c(C(=O)NC[C@H](C)O)c2C#N)ccc1C#N [Example 124] |
| 8.28 | CC(C)n1nc(-c2ccc(C#N)cc2)c(C2CC2)c1C(=O)NC1CCS(=O)(=O)C1 (stereo not drawn) [Example 125] |
| 11.3 | Cc1c(-c2ccc(C#N)cc2)nn(C2CCOC2)c1C(=O)NCC1CC1 (stereo not drawn) [Example 127] |

| SMILES | Ki [nM] |
| --- | --- |
| Cc1cc(-c2nn(C(C)C)c(C(=O)NCC(C)(C)O)c2C#N)ccc1C#N [Example 126] | 10.2 |
